Source: patent US20090291971A1, “HETEROARYL ETHERS AND PROCESSES FOR THEIR PREPARATION” (Wyeth, priority 2007, published 2009)

Columns and labels:
Type in all cases: biochemical
Flag-IKKβ = target: T1, Flag-IKKβ (Homo sapiens, UniProt O14920); assay: IKK Kinase Assay (LANCE)
T1 construct: made in house; host or cells: SF9 insect cells (baculovirus)
T1 sequence (O14920 1-756): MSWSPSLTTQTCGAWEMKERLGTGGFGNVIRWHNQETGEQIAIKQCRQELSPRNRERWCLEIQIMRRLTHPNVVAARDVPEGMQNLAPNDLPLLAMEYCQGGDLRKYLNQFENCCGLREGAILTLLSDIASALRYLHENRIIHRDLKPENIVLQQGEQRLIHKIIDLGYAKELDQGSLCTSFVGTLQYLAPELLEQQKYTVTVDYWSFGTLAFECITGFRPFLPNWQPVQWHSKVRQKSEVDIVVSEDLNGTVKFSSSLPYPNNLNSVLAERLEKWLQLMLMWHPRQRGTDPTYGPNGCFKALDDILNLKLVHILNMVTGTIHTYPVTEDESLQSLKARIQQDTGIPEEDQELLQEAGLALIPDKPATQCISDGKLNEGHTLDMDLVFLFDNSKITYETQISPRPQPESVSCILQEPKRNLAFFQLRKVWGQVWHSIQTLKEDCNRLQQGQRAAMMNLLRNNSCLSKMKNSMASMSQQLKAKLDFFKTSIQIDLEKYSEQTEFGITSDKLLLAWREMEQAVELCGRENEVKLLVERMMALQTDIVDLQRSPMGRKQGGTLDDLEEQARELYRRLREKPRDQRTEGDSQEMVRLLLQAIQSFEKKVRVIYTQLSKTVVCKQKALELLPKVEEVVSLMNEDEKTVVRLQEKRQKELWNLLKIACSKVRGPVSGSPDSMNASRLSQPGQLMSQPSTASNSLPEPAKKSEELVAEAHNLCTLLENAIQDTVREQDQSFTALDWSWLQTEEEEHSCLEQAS
From the text: Human IKKβ cDNA is amplified by reverse transcriptase-polymerase chain reaction from human placental RNA (CLONTECH) using primers that incorporated the FLAG-epitope at the C terminus of IKKβ. FLAG-IKKβ is inserted into the baculovirus expression plasmid pFASTBAC (Life Technologies). Following the manufacturer's protocol for the BAC-TO-BAC (Life Technologies) Baculovirus Expression System, recombinant baculoviruses expressing the IKKβ enzyme are made. Briefly, 9×10^5 SF9 cells per well of a 6-well plate are transfected with one μg of miniprep bacmid DNA using the CellFECTIN™ reagent. Virus is harvested 72 hours post transfection, and a viral titer is performed, after which a high titer viral stock (2×10^8 pfu/ml) is amplified by three to four rounds of infection. […]
Purified Flag-IKKβ enzyme (2 nM final concentration) is typically used in the kinase reaction buffer described above supplemented with 0.0025% Brij solution (Sigma) to help stabilize the enzyme. […] 25 μL of 20 mM EDTA is added to terminate the reactions and then 100 μL of detection mixture [0.25 nM Europium labeled anti-phospho-IκBα (prepared by Wallac) and 0.25 μg/mL final concentration streptavidin-APC, Wallac] is added 30 minutes before reading the plates in a Wallac VICTOR plate reader. […]

PI3K alpha = PI3K alpha (Homo sapiens, UniProt P42336); assay: PI3 Kinase Assay (PI3K alpha)
PI3K alpha, sequence (P42336 whole entry, species assumed, the tested form may be a part): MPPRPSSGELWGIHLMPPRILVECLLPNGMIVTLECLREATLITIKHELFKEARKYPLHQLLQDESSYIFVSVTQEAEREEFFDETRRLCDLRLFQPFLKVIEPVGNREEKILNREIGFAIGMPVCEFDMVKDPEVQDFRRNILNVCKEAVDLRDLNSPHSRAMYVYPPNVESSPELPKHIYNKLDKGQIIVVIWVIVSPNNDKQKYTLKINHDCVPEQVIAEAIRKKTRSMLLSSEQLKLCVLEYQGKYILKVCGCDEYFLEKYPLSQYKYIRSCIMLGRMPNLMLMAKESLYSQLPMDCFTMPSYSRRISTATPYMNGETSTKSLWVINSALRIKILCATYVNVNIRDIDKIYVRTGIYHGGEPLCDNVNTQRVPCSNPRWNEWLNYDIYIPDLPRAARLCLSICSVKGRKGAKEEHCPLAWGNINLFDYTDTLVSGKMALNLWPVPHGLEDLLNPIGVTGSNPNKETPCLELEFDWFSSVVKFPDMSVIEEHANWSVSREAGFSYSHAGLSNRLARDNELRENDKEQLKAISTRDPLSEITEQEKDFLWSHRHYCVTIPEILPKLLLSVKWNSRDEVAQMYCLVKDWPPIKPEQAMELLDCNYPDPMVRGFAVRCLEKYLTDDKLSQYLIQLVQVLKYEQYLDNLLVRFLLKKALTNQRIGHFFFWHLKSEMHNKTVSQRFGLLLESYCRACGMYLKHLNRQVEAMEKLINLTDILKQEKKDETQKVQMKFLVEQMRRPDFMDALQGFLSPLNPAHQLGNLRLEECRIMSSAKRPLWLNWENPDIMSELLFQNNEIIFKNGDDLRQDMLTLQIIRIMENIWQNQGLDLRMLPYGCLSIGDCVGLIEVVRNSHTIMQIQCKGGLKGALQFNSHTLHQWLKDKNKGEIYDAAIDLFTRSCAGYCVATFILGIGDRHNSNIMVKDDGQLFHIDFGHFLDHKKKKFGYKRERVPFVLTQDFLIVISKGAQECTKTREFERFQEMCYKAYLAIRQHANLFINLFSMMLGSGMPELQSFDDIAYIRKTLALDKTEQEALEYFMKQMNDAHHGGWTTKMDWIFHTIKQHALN
PI3K alpha, sequence (P27986 whole entry partner, species assumed, the tested form may be a part): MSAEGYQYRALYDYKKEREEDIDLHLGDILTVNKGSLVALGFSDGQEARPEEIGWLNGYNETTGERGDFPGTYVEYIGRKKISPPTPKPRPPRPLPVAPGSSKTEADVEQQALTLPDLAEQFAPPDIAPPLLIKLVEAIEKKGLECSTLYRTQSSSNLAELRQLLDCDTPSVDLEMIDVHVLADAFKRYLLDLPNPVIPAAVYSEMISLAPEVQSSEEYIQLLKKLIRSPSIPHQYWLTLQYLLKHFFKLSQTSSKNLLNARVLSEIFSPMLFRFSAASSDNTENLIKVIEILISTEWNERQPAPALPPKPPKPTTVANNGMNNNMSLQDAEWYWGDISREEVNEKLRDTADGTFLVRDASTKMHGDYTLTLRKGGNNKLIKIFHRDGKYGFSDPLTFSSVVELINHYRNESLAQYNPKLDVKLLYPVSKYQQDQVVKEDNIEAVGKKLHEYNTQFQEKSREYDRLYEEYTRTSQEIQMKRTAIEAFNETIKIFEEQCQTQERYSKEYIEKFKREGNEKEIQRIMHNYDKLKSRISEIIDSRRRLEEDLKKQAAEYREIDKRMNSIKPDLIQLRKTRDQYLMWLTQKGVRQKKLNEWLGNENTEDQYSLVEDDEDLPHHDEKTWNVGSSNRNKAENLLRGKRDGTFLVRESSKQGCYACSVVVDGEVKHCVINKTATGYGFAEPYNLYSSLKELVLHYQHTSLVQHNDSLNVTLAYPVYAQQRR
Description: (§1) PI3-Kinase reactions were performed in […], pH 7, […], and 25 μM ATP, with diC8-PI(4,5)P2 (Echelon, Salt Lake City Utah) as substrate. Nunc 384 well black polypropylene fluorescent plates were used for PI3K assays. Reactions were quenched by the addition of EDTA to a final concentration of […]. Final reaction volumes were […]. For evaluation of PI 3-K inhibitors, 5 ng of enzyme and 2.5 μM of substrate was used per […] reaction volume, and inhibitor concentrations ranged from 100 μM to […]; the final level of DMSO in reactions never exceeded 2%. Reactions were allowed to proceed for one hour at 25° C. After 1 hour, GST-tagged GRP1 (general receptor for phosphoinositides) PH domain fusion protein was added to a final concentration of 100 nM, and BODIPY-TMRI(1,3,4,5)P4 (Echelon) was also added to a final concentration of 5 nM. Final sample volumes were 25 μl with a final DMSO concentration of 0.8%. Assay Plates were read on Perkin-Elmer Envision plate readers with appropriate filters for Tamra [BODIPY-TMRI(1,3,4,5)P4]. Data obtained were used to calculate enzymatic activity and enzyme inhibition by inhibitor compounds.

[1] = target: T2, human PKCθ full length enzyme (Homo sapiens, UniProt Q04759); assay: PKC Theta IMAP Assay
T2 construct: human PKCθ full length enzyme; purchased Panvera P2996
T2 sequence (Q04759 whole entry): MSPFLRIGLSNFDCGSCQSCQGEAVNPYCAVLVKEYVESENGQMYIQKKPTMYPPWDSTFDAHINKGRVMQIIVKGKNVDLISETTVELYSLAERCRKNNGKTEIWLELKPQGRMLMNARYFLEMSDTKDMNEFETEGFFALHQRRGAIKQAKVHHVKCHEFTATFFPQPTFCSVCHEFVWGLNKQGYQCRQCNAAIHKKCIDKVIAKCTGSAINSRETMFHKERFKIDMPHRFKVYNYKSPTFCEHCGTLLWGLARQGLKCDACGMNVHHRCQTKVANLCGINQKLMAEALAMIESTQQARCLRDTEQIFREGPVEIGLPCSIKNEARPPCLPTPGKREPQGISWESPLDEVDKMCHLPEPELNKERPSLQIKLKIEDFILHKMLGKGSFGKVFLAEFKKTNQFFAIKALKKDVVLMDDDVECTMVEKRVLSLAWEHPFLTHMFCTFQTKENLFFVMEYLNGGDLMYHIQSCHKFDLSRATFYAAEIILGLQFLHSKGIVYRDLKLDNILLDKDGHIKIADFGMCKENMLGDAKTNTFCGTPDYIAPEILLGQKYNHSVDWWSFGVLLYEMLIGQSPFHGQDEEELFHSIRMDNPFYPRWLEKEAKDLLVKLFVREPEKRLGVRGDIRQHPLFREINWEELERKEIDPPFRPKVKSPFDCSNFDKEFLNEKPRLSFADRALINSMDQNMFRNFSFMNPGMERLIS
Description: The materials used include the following: human PKCθ full length enzyme (Panvera Cat#P2996); substrate peptide: 5FAM-RFARKGSLRQKNV-OH (Molecular Devices, RP7032); ATP (Sigma Cat #A2383); DTT (Pierce, 20291); 5× kinase reaction buffer (Molecular Devices, R7209); 5× binding buffer A (Molecular Devices, R7282), 5× binding buffer B (Molecular Devices, R7209); IMAP Beads (Molecular Devices, R7284); and 384-well plates (Corning Costar, 3710).
The reaction buffer was prepared by diluting the 5× stock reaction buffer and adding DTT to obtain a concentration of 3.0 mM. The binding buffer was prepared by diluting the 5× binding buffer A. A master mix solution was prepared using a 90% dilution of the reaction buffer containing 2×ATP (12 uM) and 2× peptide (200 nm). Compounds were diluted in DMSO to 20× of the maximum concentration for the IC50 measurement. 27 μl of the master mix solution for each IC50 curve was added to the first column in a 384-well plate and 3 μl of 20× compound in DMSO was added to each well. The final concentration of compound was 2× and 10% DMSO. DMSO was added to the rest of the master mix to increase the concentration to 10%. 10 μl of the master mix containing 10% DMSO was added to the rest of the wells on the plate except the 2nd column. 20 μl was transferred from the first column to the 2nd column. […] FP was measured using Envision2100 (PerkinElmer Life Sciences). […]

PI3K gamma = PI3K gamma (Homo sapiens, UniProt P48736); assay: PI3 Kinase Assay (PI3K gamma); conditions: 1 h
PI3K gamma, sequence (P48736 whole entry, species assumed): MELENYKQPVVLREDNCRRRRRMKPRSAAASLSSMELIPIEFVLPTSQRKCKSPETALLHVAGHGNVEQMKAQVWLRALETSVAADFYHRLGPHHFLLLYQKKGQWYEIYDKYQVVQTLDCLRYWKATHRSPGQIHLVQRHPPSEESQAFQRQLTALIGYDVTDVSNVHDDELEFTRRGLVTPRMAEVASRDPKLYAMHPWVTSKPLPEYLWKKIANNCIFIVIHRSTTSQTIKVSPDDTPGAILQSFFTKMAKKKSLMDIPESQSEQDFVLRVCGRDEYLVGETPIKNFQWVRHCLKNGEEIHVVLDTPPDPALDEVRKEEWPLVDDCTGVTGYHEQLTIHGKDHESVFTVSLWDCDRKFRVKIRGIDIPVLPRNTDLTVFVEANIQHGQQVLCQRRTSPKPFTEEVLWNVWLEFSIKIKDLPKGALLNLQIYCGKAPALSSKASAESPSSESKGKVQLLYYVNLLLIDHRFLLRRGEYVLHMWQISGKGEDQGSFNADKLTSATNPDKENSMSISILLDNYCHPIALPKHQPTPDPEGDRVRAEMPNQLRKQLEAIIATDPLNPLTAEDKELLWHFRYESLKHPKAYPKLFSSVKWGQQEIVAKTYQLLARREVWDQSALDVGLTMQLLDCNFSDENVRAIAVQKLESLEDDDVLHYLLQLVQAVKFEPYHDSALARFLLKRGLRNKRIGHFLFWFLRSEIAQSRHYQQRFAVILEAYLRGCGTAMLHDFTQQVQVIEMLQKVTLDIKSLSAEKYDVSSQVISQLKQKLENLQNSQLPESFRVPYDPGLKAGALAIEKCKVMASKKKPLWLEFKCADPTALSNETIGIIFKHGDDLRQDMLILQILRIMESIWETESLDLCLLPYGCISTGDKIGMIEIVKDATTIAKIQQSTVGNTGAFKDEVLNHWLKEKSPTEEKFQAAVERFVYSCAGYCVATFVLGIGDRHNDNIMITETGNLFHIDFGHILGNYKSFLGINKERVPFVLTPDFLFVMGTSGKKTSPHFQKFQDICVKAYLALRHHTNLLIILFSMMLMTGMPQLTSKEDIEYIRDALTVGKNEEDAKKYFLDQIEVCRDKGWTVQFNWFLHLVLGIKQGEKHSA
Description: as §1

human TOR (FLAG-TOR) = target: T3, human TOR (FLAG-TOR) (Homo sapiens, UniProt P42345); assay: mTOR Enzyme Assay (DELFIA)
T3 construct: FLAG
Description: The routine human TOR assays with purified enzyme were performed in 96-well plates by DELFIA format as follows. Enzymes were first diluted in kinase assay buffer (10 mM Hepes (pH 7.4), 50 mM NaCl, 50 mM β-glycerophosphate, 10 mM MnCl2, 0.5 mM DTT, 0.25 μM microcystin LR, and 100 μg/mL BSA). To each well, 12 μL of the diluted enzyme were mixed briefly with 0.5 μL test inhibitor or control vehicle dimethylsulfoxide (DMSO). The kinase reaction was initiated by adding 12.5 μL kinase assay buffer containing ATP and His6-S6K to give a final reaction volume of 25 μL containing 800 ng/mL FLAG-TOR, 100 μM ATP and 1.25 μM His6-S6K. The reaction plate was incubated for 2 hours (linear at 1-6 hours) at room temperature with gentle shaking and then terminated by adding 25 μL Stop buffer (20 mM Hepes (pH 7.4), 20 mM EDTA, 20 mM EGTA). The DELFIA detection of the phosphorylated (Thr-389) His6-S6K was performed at room temperature using a monoclonal anti-P(T389)-p70S6K antibody (1A5, Cell Signaling) labeled with Europium-N-1-ITC (Eu) (10.4 Eu per antibody, PerkinElmer). The DELFIA Assay buffer and Enhancement solution were purchased from PerkinElmer. 45 μL of the terminated kinase reaction mixture was transferred to a MaxiSorp plate (Nunc) containing 55 μL PBS. […] L of DELFIA Enhancement solution was added to each well and the plates were read in a PerkinElmer Victor model plate reader. […]

SMILES | inhibition at 30 µM (Flag-IKKβ) [%] | inhibition at 30 µM (PI3K alpha) [%] | IC50 [1] [µM] | inhibition at 30 µM (PI3K gamma) [%] | inhibition at 10 µM (human TOR (FLAG-TOR)) [%]
Cc1noc(C)c1Oc1ncnc2ccccc12 [Example 26, 3,5-Dimethyl-4-(quinazolin-4-yloxy)isoxazole] | 51 | 56 | 25.9 | 12 | 
c1ccc2c(Oc3cncnc3)ncnc2c1 [Example 31, 4-(Pyrimidin-5-yloxy)quinazoline] |  | 33 |  | 53 | 12
